Reference: patent US20230293475A1, “METHODS OF PROVIDING SO[…] TO SUBJECTS WITH IMPAIRED RENAL FUNCTION” (Axsome Malta Ltd., priority 2020, published 2023)

Experiments:
[1] = Phase 1 study, removal of solriamfetol by 4-hour hemodialysis in ESRD; type: in vivo, human
Description: Groups 1-4 received one dose of solriamfetol HCl (89.3 mg; equivalent to 75-mg solriamfetol) on day 1; Group 5 received one dose equivalent to 75-mg dose on day 1 followed by 4-hour hemodialysis (designated Group 5.2), and one dose equivalent to 75-mg solriamfetol on day 8 without hemodialysis (designated Group 5.1). All doses were administered on an empty stomach following an overnight fast except for participants in Group 5, who received a standardized snack on day 7 and breakfast early on day 8 before starting an 8-hour fast. Participants remained fasting for 4 hours after administration, with water allowed except for 1 hour before and after dosing.
Urine samples were collected predose and for the time intervals of 0-4, 4-8, 8-12, 12-24, and 24-48 hours in Groups 1-3, with additional collection for the 48-72 hour time interval in Groups 4 and 5. During the hemodialysis period on day 1 for Group 5, dialysate samples and pre- and post-dialyzer paired blood samples were collected at pre-dialysis (2 hours), and at 3, 4, 5, and 6 hours following dosing. […]
Bioanalytical analyses were performed by a central laboratory (KCAS, LLC, Shawnee, Kansas) using validated proprietary methods that included extraction/derivatization and liquid chromatography-tandem mass spectrometry (LC-MS/MS). […] Assay performance was monitored by spiking blank interference free human plasma with positive controls and internal standards to generate standard curve and quality control samples. […] Quantification was based on setting a calibration graph using the internal standard method. […]
The following plasma PK parameters were evaluated using non-compartmental analysis in Phoenix® WinNonlin® Version 6.3: Cmax; time to reach Cmax following drug administration (tmax); t½; area under the plasma concentration-time curve from time zero to time of last quantifiable concentration (AUCt); AUC from time zero to infinity (AUC∞); apparent total clearance of the drug from plasma after oral administration (CL/F); and apparent volume of distribution (Vd/F). […]

[2] = 12-week placebo-controlled trials comparing various doses; cited from earlier work

For NC(=O)OC[C@H](N)Cc1ccccc1 [solriamfetol, [R]-2-amino-3-phenylpropylcarbamate], the “hemodialysis clearance, lower than renal clearance in normal renal function” value [1] was “approximately 30%”, the clearance ([1]; both sexes, human, dialysate, oral, 75 mg, day 1) was 207 mL/min and the “cumulative fraction of the 75-mg dose removed over the 4-hour hemodialysis period, mean” value ([1]; day 1) was 20.6%. The “adverse effects (headache, nausea, decreased appetite, anxiety and others), dependence on dose” value [2] was “dose-dependent”.
